Test results from patent US9862730B2, “Imidazothiadiazole derivatives as protease activated receptor 4 (PAR4) inhibitors for treating platelet aggregation” (BRISTOL-MYERS SQUIBB COMPANY, priority 2012, dated 2018).
Like-named read-outs stand apart in the source and are kept apart here.

What was measured:
Assay type in all cases: cell-based
human washed platelets = test: Alpha-thrombin induced platelet aggregation assay; conditions: for IC50: Homo sapiens, Platelet, 0.1 h, AUC at 6 min, read-out: IC50 for the inhibition of platelet aggregation
Experimental: Example D is an alpha-thrombin-induced platelet aggregation assay. Alpha-thrombin activates both PAR1 and PAR4.
Human blood was collected in ACD (85 mM tri-sodium citrate, 78 mM citric acid, 110 mM D-glucose, pH 4.4) at a ratio of 1.4 ml per 10 ml blood. PRP was isolated by centrifugation at 170 g for 14 minutes and platelets were further pelleted by centrifugation at 1300 g for 6 minutes. Platelets were washed once with 10 ml ACD containing 1 mg/ml bovine serum albumin. Platelets were resuspended at ˜2.5×10^8/ml in Tyrode's Buffer (137 mM NaCl, 2 mM KCl, 1.0 mM MgCl2, 1 mM CaCl2, 5 mM glucose, 20 mM HEPES pH 7.4).
The ability of PAR4 antagonist to inhibit platelet aggregation induced by alpha-thrombin was tested using human washed platelets. […] Aggregation was initiated by addition of 2.5 or 5 nM alpha-thrombin (Haematologic Technologies, Essex Junction, Vt.) to 240 μl of washed platelets at stirring speed of 1200 rpm. […] IC50 was calculated using vehicle control as 0% inhibition.

PAR4 [1] = target: T1, PAR4 (Homo sapiens (Human), UniProt Q96RI0); test: FLIPR assay in PAR4-expressing HEK293 cells (PAR4 antagonist activity, calcium mobilization); conditions: FLIPR assay as described in Example A
T1 sequence (Q96RI0 18-385): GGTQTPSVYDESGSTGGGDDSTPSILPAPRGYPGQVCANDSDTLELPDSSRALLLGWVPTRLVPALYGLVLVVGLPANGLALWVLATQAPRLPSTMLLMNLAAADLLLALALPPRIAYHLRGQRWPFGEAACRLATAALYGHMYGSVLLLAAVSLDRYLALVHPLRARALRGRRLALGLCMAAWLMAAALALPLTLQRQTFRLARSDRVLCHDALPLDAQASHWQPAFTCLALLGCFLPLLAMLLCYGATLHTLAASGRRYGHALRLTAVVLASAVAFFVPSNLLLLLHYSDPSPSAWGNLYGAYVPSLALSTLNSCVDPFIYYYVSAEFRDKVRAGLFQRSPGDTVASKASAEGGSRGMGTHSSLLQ
How it was run: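 Calcium-flux antagonist readout: compounds preincubated 30 min at room temperature with PAR4-transfected HEK293 cells in HBSS with 10 mM HEPES (0.67% DMSO final), then agonist peptide added. Agonist activity checked on compound addition; cells carry endogenous PAR1.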

PAR4 [2] = target: T1, PAR4; test: Gamma thrombin induced platelet aggregation assay in PRP (PRP assay)
Description: The compounds of the current invention can be tested in vitro for their ability to inhibit platelet aggregation induced by gamma-thrombin as shown in Example C. Gamma-thrombin, a proteolytic product of alpha-thrombin which no longer interacts with PAR1, selectively cleaves and activates PAR4 (Soslau, G. et al., “Unique pathway of thrombin-induced platelet aggregation mediated by glycoprotein Ib”, J. Biol. Chem., 276:21173-21183 (2001)). Platelet aggregation can be monitored in a 96-well microplate aggregation assay format or using standard platelet aggregometer. The aggregation assay can also be employed to test the selectivity of the compound for inhibiting platelet aggregation induced by PAR4 agonist peptides, PAR1 agonist peptide, ADP, or thromboxane analogue U46619.
The platelet rich plasma was isolated by centrifugation at 170 g for 14 minutes.
The ability of the compounds of the current invention to inhibit platelet aggregation induced by gamma-thrombin was tested in a 96-well microplate aggregation assay format. Briefly, PRP or washed platelet suspension (100 μl) was pre-incubated for 5 minutes at room temperature with varying concentrations of compounds. Aggregation was initiated by ˜10-50 nM gamma thrombin (Haematologic Technologies, Essex Junction, Vt.), which was titrated daily to achieve 80% platelet aggregation. Refludan at 1 U/mL (Berlex, Montville, N.J.) was added to the gamma thrombin sample to prevent PAR1 activation induced by residual alpha-thrombin contamination. The plate was then placed into a 37° C. Molecular Devices (Sunnyvale, Calif.) SPECTRAMAX® Plus Plate Reader. […] Data was collected with SOFTMAX® 4.71 software. The plate also included an untreated control sample which served as ODmax, while buffer containing no platelets was the ODmin. Platelet aggregation was determined by subtracting the ODmax from the ODmin for the 100% aggregation value. In experimental samples, the observed transmission was subtracted from the minimum value and then compared to the 100% aggregation value to determine the percentage aggregation. IC50 values are determined using Excel Fit software.
As indicated above, the PRP assay, an in vitro assay, measures the PAR4 antagonist activity of compounds tested as described in Example C.

IC50 (human washed platelets; 5 nM alpha-thrombin, n=3) | IC50 (human washed platelets; […] alpha-thrombin, n=4) | IC50 (PAR4 [1]) | IC50 (PAR4 [2]) | Compound | inhibition of alpha-thrombin-induced platelet aggregation (FIG. 2) (human washed platelets; 5 nM alpha-thrombin)
6.9 ± 0.3 µM | 1.1 ± 0.9 µM | – | – | COc1cc(OCc2ccccc2)c2cc(-c3cn4nc(OC)sc4n3)oc2c1 [Example 203, 6-(4-(Benzyloxy)-6-methoxybenzofuran-2-yl)-2-methoxyimidazo[2,1-b][1,3,4]thiadiazole] | dose-dependent inhibition
– | – | 23 nM | 2960 nM | COc1cc(OCc2ccc(F)cc2)c2cc(-c3cn4nc(SC)sc4n3)oc2c1 [Example 301] | –
– | – | 195 nM | > 30000 nM | COc1cc(OCc2ccc(F)cc2)c2cc(-c3cn4nc(Br)sc4n3)oc2c1 [Example 302] | –
– | – | 5.68 nM | 3190 nM | COc1cc(OCc2ccc(F)cc2)c2cc(-c3cn4nc(OC)sc4n3)oc2c1 [Example 303] | –
– | – | 55.6 nM | > 30000 nM | COc1cc(OCc2ccc(F)cc2)c2cc(-c3cn4nc(C(C)(F)F)sc4n3)oc2c1 [Example 304] | –
– | – | 9.23 nM | 101 nM | COc1cc(OCc2cccc(OCc3cccc(C)n3)c2)c2cc(-c3cn4nc(OC)sc4n3)oc2c1 [Example 307] | –
– | – | 4.17 nM | 93.3 nM | COc1cc(OCc2cccc(OCc3cccc(C(F)(F)F)c3F)c2)c2cc(-c3cn4nc(OC)sc4n3)oc2c1 [Example 316] | –
– | – | 1.92 nM | 36.5 nM | COc1cc(OCc2cccc(OCc3ccccc3F)c2)c2cc(-c3cn4nc(OC)sc4n3)oc2c1 [Example 318] | –
– | – | 9.2 nM | 124 nM | COc1cc(OCc2cccc(OCc3ccccn3)c2)c2cc(-c3cn4nc(OC)sc4n3)oc2c1 [Example 319] | –
– | – | 3.93 nM | 75.5 nM | COc1cc(OCc2cccc(OCc3ccnc(Cl)c3)c2)c2cc(-c3cn4nc(OC)sc4n3)oc2c1 [Example 320] | –
– | – | 1.64 nM | 86.2 nM | COc1cc(OCc2cccc(OCc3ccc(F)c(F)c3F)c2)c2cc(-c3cn4nc(OC)sc4n3)oc2c1 [Example 325] | –
– | – | 401 nM | > 30000 nM | CSc1nn2cc(-c3nc4c(OC[C@@H]5CCCN5C(=O)[C@H](NC(=O)c5ccccc5)c5ccccc5)cccc4o3)nc2s1 [Example 337, N—((R)-2-((S)-2-(((2-(2-(Methylthio)imidazo[2,1-b][1,3,4]thiadiazol-6-yl)benzo[d]oxazol-4-yl)oxy)methyl)pyrrolidin-1-yl)-2-oxo-1-phenylethyl)benzamide] | –
– | – | 1.68 nM | 147 nM | COc1cc(OCc2cccc(OCc3ccc(F)cc3)c2)c2cc(-c3cn4nc(OC)sc4n3)oc2c1 [Example 346] | –
– | – | 2.74 nM | 579 nM | COc1cc(OCc2cccc(OCc3ccccc3)c2)c2cc(-c3cn4nc(C(C)(F)F)sc4n3)oc2c1 [Example 347] | –
– | – | 2.26 nM | 3080 nM | CCOc1nn2cc(-c3cc4c(OCc5cccc(OCc6ccccc6)c5)cc(OC)cc4o3)nc2s1 [Example 348] | –
– | – | 0.76 nM | 85.7 nM | COc1cc(OCc2cc(F)cc(OCc3ccccc3)c2)c2cc(-c3cn4nc(OC)sc4n3)oc2c1 [Example 350] | –
– | – | 2.25 nM | 10.5 nM | COc1cc(OCc2cccc(OCc3cccc(OC)c3OC)c2)c2cc(-c3cn4nc(OC)sc4n3)oc2c1 [Example 353] | –
– | – | 1.65 nM | 33.3 nM | COc1cc(OCc2cccc(OC(=O)c3ccccc3)c2)c2cc(-c3cn4nc(OC)sc4n3)oc2c1 [Example 355] | –
– | – | 1.66 nM | 109 nM | COc1cc(OCc2cccc(OCc3cc(F)cc(C(F)(F)F)c3)c2)c2cc(-c3cn4nc(OC)sc4n3)oc2c1 [Example 356] | –
– | – | 2.42 nM | 38.3 nM | COc1cc(OCc2cccc(OCc3ccccc3C)c2)c2cc(-c3cn4nc(OC)sc4n3)oc2c1 [Example 363] | –
– | – | 10.5 nM | 5820 nM | COc1cc(OCc2cccc(OCc3ccccc3CCc3ccccc3)c2)c2cc(-c3cn4nc(OC)sc4n3)oc2c1 [Example 364] | –

IC50 (human washed platelets; 5 nM alpha-thrombin, n=3) | IC50 (human washed platelets; […] alpha-thrombin, n=4) | IC50 (PAR4 [1]) | IC50 (PAR4 [2]) | Compound | inhibition of alpha-thrombin-induced platelet aggregation (FIG. 2) (human washed platelets; 5 nM alpha-thrombin)
– | – | 5.3 nM | 151 nM | COc1cc(OCc2cccc(OCc3c(F)cccc3Cl)c2)c2cc(-c3cn4nc(OC)sc4n3)oc2c1 [Example 370] | –
– | – | 7.56 nM | 6910 nM | COc1cc(OCc2cccc(OCc3cc(OC(C)C)cc(OC(C)C)c3)c2)c2cc(-c3cn4nc(OC)sc4n3)oc2c1 [Example 371] | –
– | – | 2.27 nM | 3410 nM | COc1cc(OCc2cccc(OCc3ccc(Oc4ccccc4)cc3)c2)c2cc(-c3cn4nc(OC)sc4n3)oc2c1 [Example 372] | –
– | – | 7.63 nM | 2500 nM | COc1cc(COc2cccc(COc3cc(OC)cc4oc(-c5cn6nc(OC)sc6n5)cc34)c2)cc(OCc2ccccc2)c1 [Example 373] | –
– | – | 7.27 nM | 677 nM | COc1cc(OCc2cccc(OCc3cc(Cl)cc(Cl)c3)c2)c2cc(-c3cn4nc(OC)sc4n3)oc2c1 [Example 376] | –
– | – | 8.68 nM | 594 nM | COc1cc(OCc2cccc(OCc3cccc(OCc4ccccc4)c3)c2)c2cc(-c3cn4nc(OC)sc4n3)oc2c1 [Example 383] | –
– | – | 5.05 nM | 568 nM | COc1cc(OCc2cccc(OCc3cccc(Oc4ccccc4)c3)c2)c2cc(-c3cn4nc(OC)sc4n3)oc2c1 [Example 384] | –
– | – | 1.77 nM | 55 nM | COc1cc(OCc2cccc(OCc3cccc(C)c3)c2)c2cc(-c3cn4nc(OC)sc4n3)oc2c1 [Example 386] | –
– | – | 41.5 nM | 2400 nM | COc1nn2cc(-c3cc4c(OCc5cccc(OCc6cccc(C)c6)c5)c(Cc5ccccc5)c(OC)cc4o3)nc2s1 [Example 387] | –
– | – | 1.44 nM | 105 nM | COc1ccc(COc2cccc(COc3cc(OC)cc4oc(-c5cn6nc(OC)sc6n5)cc34)c2)cc1 [Example 392] | –
– | – | 35.9 nM | 2500 nM | COc1cc(OCc2cccc(OCc3ccc(C(C)(C)C)cc3)c2)c2cc(-c3cn4nc(OC)sc4n3)oc2c1 [Example 393] | –
– | – | 3.68 nM | 616 nM | COc1cc(OCc2cccc(OCc3ccc(OC(F)(F)F)cc3)c2)c2cc(-c3cn4nc(OC)sc4n3)oc2c1 [Example 394] | –
– | – | 2.14 nM | 66.2 nM | COc1cc(OCc2cccc(OCc3cccnc3)c2)c2cc(-c3cn4nc(OC)sc4n3)oc2c1 [Example 398] | –
– | – | 0.59 nM | 4.95 nM | COc1cc(OCc2cccc(OCc3csc(C)n3)c2)c2cc(-c3cn4nc(OC)sc4n3)oc2c1 [Example 399] | –
– | – | 6.2 nM | 151 nM | COc1cc(OCc2cc(Cl)cc(OCc3ccccc3)c2)c2cc(-c3cn4nc(OC)sc4n3)oc2c1 [Example 402] | –
– | – | 2.44 nM | 22.5 nM | COc1cc(COc2cc(OC)cc3oc(-c4cn5nc(OC)sc5n4)cc23)cc(OCc2ccccc2)c1 [Example 404] | –
– | – | 4.69 nM | 544 nM | COc1cc(OCc2cccc(OCc3ccccc3)c2)c2cc(-c3cn4nc(Cl)sc4n3)oc2c1 [Example 405] | –
– | – | 1.12 nM | 462 nM | COc1cc(OCc2cccc(OCc3ccccc3)c2)c2cc(-c3cn4nc([C@H](C)F)sc4n3)oc2c1 [Example 407] | –
– | – | 513 nM | 3270 nM | COc1nn2cc(-c3cc4c(OCc5cccc(OCc6ccccc6)c5)cc(OC)c(Cl)c4o3)nc2s1 [Example 415, 6-(4-((3-(Benzyloxy)benzyl)oxy)-7-chloro-6-methoxybenzofuran-2-yl)-2-methoxyimidazo[2,1-b][1,3,4]thiadiazole] | –
– | – | 4.56 nM | 566 nM | CCOc1cc(OCc2cccc(OCc3ccccc3)c2)c2cc(-c3cn4nc(OC)sc4n3)oc2c1 [Example 426] | –
– | – | 4.81 nM | 73.2 nM | COc1nn2cc(-c3cc4c(F)cc(OCc5cccc(OCc6ccccc6)c5)cc4o3)nc2s1 [Example 428] | –
